The values below come from ChEMBL document CHEMBL3045982, “Design, synthesis and structure-activity relationship of novel coumarin derivatives” (Pest Manag Sci, 2011).

Experiment [1] has as its system Pseudoperonospora cubensis. Kind of experiment: Fungicidal activity against Pseudoperonospora cubensis at 25 mg/L relative to untreated control. The experiment is classed as functional.
The subject of experiment [2] is Pseudoperonospora cubensis. Kind of experiment: Fungicidal activity against Pseudoperonospora cubensis at 6.25 mg/L relative to untreated control. The experiment is classed as functional.
For experiment [3], the system named is Pseudoperonospora cubensis. Kind of experiment: Fungicidal activity against Pseudoperonospora cubensis at 50 mg/L relative to untreated control. The class given is functional.
Experiment [4] concerns Pseudoperonospora cubensis. Kind of experiment: Fungicidal activity against Pseudoperonospora cubensis at 100 mg/L relative to untreated control. The class given is functional.
Experiment [5] has as its system Pseudoperonospora cubensis. Kind of experiment: Fungicidal activity against Pseudoperonospora cubensis at 200 mg/L relative to untreated control. The class given is functional.
Experiment [6] relates to Cytospora. Kind of experiment: Fungicidal activity against Cytospora mandshurica Miura under green house condition in presence of 96% compound. The experiment is classed as functional, organism-based.
For experiment [7], the system named is Cytospora. Kind of experiment: Fungicidal activity against Cytospora mandshurica Miura at 500 mg/L of 20% compound under field trials conditions relative to untreated control. The class given is functional.
The test system of experiment [8] is Cytospora. Kind of experiment: Fungicidal activity against Cytospora mandshurica Miura at 1000 mg/L of 20% compound under field trials condition relative to untreated control. The class given is functional.
Experiment [9] concerns Cytospora. Kind of experiment: Fungicidal activity against Cytospora mandshurica Miura under green house condition in presence of 20% compound. The experiment is classed as functional, organism-based.
For experiment [10], the system named is Cytospora. Kind of experiment: Fungicidal activity against Cytospora mandshurica Miura at 1000 mg/L of 25% compound under field trials condition relative to untreated control. The class given is functional.
Experiment [11] deals with Cytospora. Kind of experiment: Fungicidal activity against Cytospora mandshurica Miura under green house condition in presence of 98% compound. The experiment is classed as functional, organism-based.

Each structure is given as a SMILES string.

With `CO/C=C(/C(=O)OC)c1ccccc1COc1ccc2c(-c3ccccc3)cc(=O)oc2c1C`, the Activity was found to be 50% in experiment [1]; 30% in [2]; 90% in experiment [3]; 90% in experiment [4]; 95% in [5].

Molecule `CO/C=C(/C(=O)OC)c1ccccc1COc1cc2oc(=O)cc(C)c2cc1/C(C)=N\OC` displayed an Activity in experiment [5] of 80%.

Turning to `CO/C=C(/C(=O)OC)c1ccccc1COc1ccc2c(-c3ccccc3)cc(=O)oc2c1`, the Activity in experiment [1] was 60%; in experiment [2], 50%; in experiment [3], 80%; in experiment [4], 100%; in [5], 100%.

In the case of `CCc1c(C)c2ccc(OCc3ccccc3/C(=C\OC)C(=O)OC)cc2oc1=O`, the Activity in experiment [1] is 20%; in [2], 0%; in [3], 80%; in [4], 100%; in [5], 100%.

For the molecule `CCCc1c(C)c2ccc(OCc3ccccc3/C(=C\OC)C(=O)OC)cc2oc1=O`, the Activity in experiment [1] was found to be 20%; in experiment [2], 0%; in experiment [3], 30%; in experiment [4] it was 80%; in [5], 100%.

`CO/C=C(/C(=O)OC)c1ccccc1COc1ccc2c(C)cc(=O)oc2c1C(C)=O`: in experiment [5], the Activity is reported as 60%.

With `CO/C=C(/C(=O)OC)c1ccccc1COc1ccc2c3c(c(=O)oc2c1C)CCC3`, the Activity in experiment [5] turned out to be 0%.

On to `CO/C=C(/C(=O)OC)c1ccccc1COc1cccc2c(C)c(C)c(=O)oc12`, for which the Activity in experiment [5] was 0%.

As for `CO/C=C(/C(=O)OC)c1ccccc1COc1ccc2c(C)cc(=O)oc2c1/C(C)=N/OC`, the Activity in [5] was determined as 30%.

As to `COC(=O)N(OC)c1ccccc1COc1ccc2c(C)c(C)c(=O)oc2c1C`, the Activity in [1] is 50%; in experiment [2], 0%; in experiment [3] it was 75%; in [4] it was 80%; in [5], 90%.

For `CO/C=C(/C(=O)OC)c1ccccc1COc1ccc2c(C(C)C)cc(=O)oc2c1`, the Activity worked out at 95% in [1]; 50% in [2]; 100% in experiment [3]; 100% in experiment [4]; 100% in [5].

For `CCCCc1c(C)c2ccc(OCc3ccccc3/C(=C\OC)C(=O)OC)cc2oc1=O` [Coumoxystrobin], the Activity turned out to be 100% in experiment [1]; 95% in experiment [2]; 100% in [3]; 100% in experiment [4]; 100% in experiment [5]. For the same molecule, the EC50 in the experiment on Cytospora [6] was found to be 1.83 µg/mL; with Cytospora [9], 1.72 µg/mL. The Efficacy in the experiment on Cytospora [7] worked out at 88.5%; with Cytospora [8], 97.3%.

Consider `CO/N=C(/C(=O)OC)c1ccccc1COc1ccc2c(C)c(Cl)c(=O)oc2c1`, for which the Activity in [1] was determined as 85%; in experiment [2], 65%; in [3], 90%; in experiment [4], 100%; in experiment [5], 100%.

Regarding `CO/C=C(/C(=O)OC)c1ccccc1COc1ccc2c3c(c(=O)oc2c1C)CCCC3`, in experiment [5], the Activity is listed as 50%.

As to `CO/N=C(/C(=O)OC)c1ccccc1COc1ccc2c(C)c(C)c(=O)oc2c1C`, the Activity in experiment [1] worked out at 50%; in experiment [2] it was 40%; in experiment [3] it was 60%; in experiment [4], 85%; in experiment [5] it was 95%.

`CO/C=C(/C(=O)OC)c1ccccc1COc1ccc2c3c(c(=O)oc2c1)CCCC3`: the Activity in experiment [1] is 100%; in experiment [2], 75%.

In turn, `CO/C=C(/C(=O)OC)c1ccccc1COc1ccc2c(-c3ccc(Cl)cc3)cc(=O)oc2c1` had an Activity in experiment [5] of 70%.

Take `CCCCc1c(C)c2ccc(OCc3ccccc3N(OC)C(=O)OC)cc2oc1=O`: the Activity in experiment [1] is on record as 75%; in [2], 50%; in experiment [3], 90%; in experiment [4] it was 100%; in [5] it was 100%.

Take `CO/C=C(/C(=O)OC)c1ccccc1COc1ccc2c(C)c(F)c(=O)oc2c1`: the Activity in experiment [1] turned out to be 95%; in experiment [2], 60%; in experiment [3], 100%; in experiment [4], 100%; in experiment [5] it was 100%.

For the molecule `CCc1cc(=O)oc2cc(OCc3ccccc3/C(=C\OC)C(=O)OC)ccc12`, the Activity is on record as 100% in experiment [1]; 50% in experiment [2]; 100% in experiment [3]; 100% in [4]; 100% in [5].

On to `CO/C=C(/C(=O)OC)c1ccccc1COc1ccc2c(C)cc(=O)oc2c1`, for which the Activity was 97% in experiment [1]; 45% in [2]; 100% in [3]; 100% in experiment [4]; 100% in experiment [5].

In the case of `COC(=O)N(OC)c1ccccc1COc1ccc2c(C)c(C)c(=O)oc2c1`, the Activity in experiment [1] amounted to 85%; in experiment [2] it was 65%; in [3] it was 100%; in experiment [4], 100%; in experiment [5] it was 100%.

For `CO/C=C(/C(=O)OC)c1ccccc1COc1ccc2c(-c3ccc(C(F)(F)F)cc3)cc(=O)oc2c1`, the Activity came out at 70% in experiment [4] and 85% in experiment [5].

As for `CO/C=C(/C(=O)OC)c1ccccc1COc1ccc2oc(=O)cc(C)c2c1`, the Activity in experiment [1] came to 0%; in experiment [2] it was 0%; in experiment [3], 30%; in [4] it was 60%; in experiment [5], 85%.

Regarding `CO/C=C(/C(=O)OC)c1ccccc1COc1cccc(C(F)(F)F)n1` [PICOXYSTROBIN], the Activity in [1] came to 95%; in experiment [2], 50%.

Turning to `CO/C=C(/C(=O)OC)c1ccccc1COc1ccc2c(C)c(Cl)c(=O)oc2c1`, the Activity worked out at 100% in [1]; 75% in [2]; 100% in [3]; 100% in [4]; 100% in [5].

In the case of `CO/C=C(/C(=O)OC)c1ccccc1COc1ccc2oc(=O)c(C)c(C)c2c1`, in [5], the Activity stood at 70%.

With `CO/N=C(/C(=O)OC)c1ccccc1COc1ccccc1C` [KRESOXIM-METHYL], the values for the Activity in experiment [1] and in experiment [2] were 35% and 0%, respectively.

`CO/C=C(/C(=O)OC)c1ccccc1COc1ccc2ccc(=O)oc2c1`: the Activity was 50% in experiment [1]; 0% in experiment [2]; 70% in experiment [3]; 100% in experiment [4]; 100% in experiment [5].

As to `CNC(=O)/C(=N/OC)c1ccccc1COc1ccc2c(C)c(C)c(=O)oc2c1C`, the Activity worked out at 20% in experiment [1]; 0% in experiment [2]; 30% in [3]; 85% in experiment [4]; 95% in experiment [5].

On to `CO/C=C(/C(=O)OC)c1ccccc1COc1ccc2c(-c3ccc(Cl)nc3)cc(=O)oc2c1`, for which the Activity in experiment [1] is reported as 40%; in experiment [2], 0%; in experiment [3], 75%; in [4], 80%; in [5], 90%.

For the molecule `CO/C=C(/C(=O)OC)c1ccccc1COc1ccc2c(C)c(C)c(=O)oc2c1`, the Activity in experiment [1] is recorded as 100%; in experiment [2] it was 85%; in experiment [3], 100%; in experiment [4], 100%; in experiment [5], 100%.

Regarding `CO/C=C(/C(=O)OC)c1ccccc1COc1cc2oc(=O)cc(C)c2cc1C(C)=O`, the Activity in experiment [1] was determined as 50%; in experiment [2], 0%; in experiment [3], 80%; in experiment [4], 85%; in [5] it was 90%.

Turning to `CCCc1cc(=O)oc2cc(OCc3ccccc3/C(=C\OC)C(=O)OC)ccc12`, the Activity in experiment [1] was determined as 95%; in experiment [2] it was 55%; in experiment [3] it was 100%; in experiment [4] it was 100%; in experiment [5], 100%.

In the case of `CCCCCCc1c(C)c2ccc(OCc3ccccc3/C(=C\OC)C(=O)OC)cc2oc1=O`, the Activity was determined as 100% in [1]; 80% in [2]; 100% in experiment [3]; 100% in experiment [4]; 100% in [5].

In the case of `CO/C=C(/C(=O)OC)c1ccccc1COc1ccc2c(C(F)(F)F)cc(=O)oc2c1`, the Activity in experiment [1] is given as 70%; in [2] it was 50%; in experiment [3] it was 80%; in [4] it was 95%; in experiment [5], 100%.

Turning to `CO/C=C(/C(=O)OC)c1ccccc1Oc1cc(Oc2ccccc2C#N)ncn1` [AZOXYSTROBIN], the Activity is on record as 100% in experiment [1] and 95% in experiment [2]. The same molecule came in with an Efficacy with Cytospora [10] of 73.5%. Also, the EC50 in the experiment with Cytospora [11] was 2.78 µg/mL.

For the molecule `CO/C=C(/C(=O)OC)c1ccccc1COc1ccc2c3c(c(=O)oc2c1)CCC3`, the Activity turned out to be 100% in experiment [1] and 40% in experiment [2].

With `CO/C=C(/C(=O)OC)c1ccccc1COc1cc(=O)oc2ccccc12`, the Activity in experiment [1] came to 0%; in experiment [2] it was 0%; in [3], 30%; in experiment [4] it was 70%; in [5], 85%.
